Read-outs that look alike come from different tables or passages of the source.
Key:
[1] = target: T1, acetylpolyamine amidohydrolase (the present enzyme, product purified to homogeneity) (Mycoplana ramosa, UniProt Q48935); experiment: Enzyme activity on acetylpolyamine substrates, product purified to homogeneity (Method 2 / Method 3); format: biochemical, Mycoplana bullata; conditions: for Vmax, Mycoplana bullata enzyme: pH 9.0; for Relative activity, Mycoplana bullata enzyme: phosphate buffer pH 9.0, substrate 0.833 mM, acetylputrescine = 100; for Optimum pH: 37° C., phosphate and borate buffers, per substrate
T1 construct: novel acetylpolyamine amidohydrolase of the present invention accumulated within the grown cells; made in house; host or cells: Mycoplana (natural producer)
T1 sequence (Q48935 1-341): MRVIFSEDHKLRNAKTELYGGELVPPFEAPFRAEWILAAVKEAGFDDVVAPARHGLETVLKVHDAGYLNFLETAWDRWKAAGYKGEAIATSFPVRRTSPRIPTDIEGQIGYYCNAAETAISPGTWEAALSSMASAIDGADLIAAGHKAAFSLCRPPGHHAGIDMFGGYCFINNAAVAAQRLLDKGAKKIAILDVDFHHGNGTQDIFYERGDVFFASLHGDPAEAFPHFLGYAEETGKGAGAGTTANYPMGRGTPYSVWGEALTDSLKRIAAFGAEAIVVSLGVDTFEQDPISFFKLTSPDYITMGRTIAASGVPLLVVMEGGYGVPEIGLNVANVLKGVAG
Description: [Method 2] (Assay when acetylputrescine, acetylcadaverine, N^1 -acetylspermidine and N^8 -acetylspermidine are used as substrate:)
The acetylpolyamine can be hydrolyzed by the acetylpolyamine amidohydrolase, as described in [Method 1], and the corresponding free polyamine thus formed is then oxidized by putrescine oxidase. Putrescine oxidase derived from Micrococcus rubens is known to have an activity upon putrescine, cadaverine and spermidine [Adachi, et al., Agric. Biol. Chem, 30, 1202 (1966)]. […] The actual analytical procedure is as described below.
The above reagents, (b) through (h), were put in a cuvette (d: 1.0 cm) and the mixture was preincubated at 37° C. for 2 minutes. The substrate solution (a) was then added, and the resulting mixture was incubated at 37° C. Absorbance at 500 nm was measured over a period of 3 to 5 minutes, and the change in absorbance per minute (ΔODsample) was determined from the linear portion of the plotted curve. For control, the same procedure as above was carried out, using distilled water as reference.
One unit of acetylpolyamine amidohydrolase is defined as its amount necessary to hydrolyze 1 μmole of acetylputrescine at 37° C. for one minute (or the amount necessary to form 0.5 μmole of quinoneimine pigment formed in the method for measuring the enzyme activity described above).
[Method 3] (Assay when acetylspermine is used as substrate:)
Acetylspermine is hydrolyzed by the action of acetylpolyamine amidohydrolase into free form of spermine. The free form of spermine can be oxidized by a polyamine oxidase derived from Aspergillus terreus to produce hydrogen peroxide. Two molar equivalents of hydrogen peroxide is formed from one molar equivalent of spermine. Thus, the enzyme activity can be measured by quantitative determination of the hydrogen peroxide according to the method described above. However, since the above polyamine oxidase also acts upon acetylspermine, it is impossible to exactly measure the activity of acetylpolyamine amidohydrolase by the standard assay. […] The actual procedure is described below.
Reagents (b) through (d) given in item (1) were put in a test tube and the mixture was preincubated at 37° C. for 2 minutes. The substrate solution (a) was then added, the resulting mixture was incubated at 37° C. for 10 minutes, and the reaction was stopped by addition of the termination (e). A sample solution (100 μl) was taken from the reaction mixture and subjected to HPLC as described above to separate free form of spermine from acetylspermine. Generally, acetylspermine is eluted at a position of 38 minutes after the start of elution and free form of spermine at a position of 41 minutes after the start of elution. A sample solution (200 μl), taken from the eluate containing free form of spermine, was mixed in a cuvette with reagents (a) through (e) given in item (2) above, the mixture was incubated at 37° C. for 10 minutes, and the absorbance at 755 nm was measured. For control, the same procedure as above was carried out using 200 μl of Elunt A in place of the sample solution, as reference.
The concentration of free form of spermine in the reaction mixture can be determined from a calibration curve previously prepared on the basis of aqueous soluitons of free form of spermine with different concentrations. If the concentration of free form of spermine contained in 150 μl of the reaction mixture is taken as P (mM), then the potency (A) for 1 ml of the enzyme solution can be expressed by the following equation: […]
The activities upon acetylputrescine, acetylcadaverine, N^1 -acetylspermidine and N^8 -acetylspermidine were measured by [Method 2] in a phosphate buffer (pH 9.0) at a substrate concentration of 0.833 mM, and the activity upon acetyl-spermine was measured by [Method 3] under the same conditions. […] Km values, determined from the Lineweaver-Burk plot, are also listed in the same table. […]

[2] = system: E3: Enzyme derived from Micrococcus luteus (acetylpolyamine amidohydrolase); conditions: pH 7.0, cited from earlier work; for Relative activity, E3: activity against acetylputrescine defined as 100
[3] = system: E2: Enzyme derived from Arthrobacter sp. (acetylpolyamine amidohydrolase); conditions: pH 7.0, cited from earlier work; for Relative activity, E2: activity against acetylputrescine defined as 100
[4] = target: T2, acetylpolyamine amidohydrolase (the present enzyme, partially purified product) (Mycoplana ramosa, UniProt Q48935); experiment: Enzyme activity on acetylpolyamine substrates, partially purified product (substrate specificity, optimum pH/temperature, Km); format: biochemical, Mycoplana bullata; conditions: for Optimum pH: pH 6 to 10, bis-Tris propane buffer, per substrate; for Relative activity, the present enzyme: pH 7.0, activity against acetylputrescine defined as 100
T2 construct: novel acetylpolyamine amidohydrolase of the present invention accumulated within the grown cells; made in house; host or cells: Mycoplana (natural producer; cells grown in culture)
T2 sequence (Q48935 1-341): T1 sequence (Q48935 1-341)
Protocol: Activity of the present enzyme (partially purified products) is measured according to the following procedure. That is, 0.1 ml of an enzyme solution is added to a reagent solution consisting of 1.5 ml of 0.1 M phosphate buffer (pH 7.0), 0.05 ml of 50 mM acetylpolyamine, 0.4 U of putrescine oxidase (when acetylputrescine, acetylcadaverine or acetylspermidine is used as substrate) or polyamine oxidase (when acetylspermidine or acetylspermine is used as substrate), 0.5 ml of 2.4 mM 4-aminoantipyrine, 0.5 ml of 42 mM phenol and 20 U of peroxidase. The mixture is incubated at 37° C., and the absorbance of quinoneimine pigment formed at 500 nm is measured.
In terms of the enzyme activity, the amount of enzyme that can hydrolyze 1 μmole of a substrate in one minute is defined as one unit (1 U).
The relative activities of acetylpolyamine amidohydrolases against various type of acetylpolyamine, defining the activities against acetylputrescine as 100 under a condition of pH 7.0, are as shown in Table 1 below.
Enzyme activity was measured at different pH levels ranging from 6 to 10 by using bis-Tris propane buffer solutions. The optimum pH was 9 for acetylputrescine and acetylcadaverine, and 8 for N^1 -acetylspermidine, N^8 -acetylspermidine and acetylspermine, as shown in FIG. 1.
The optimum working temperature for the present enzyme was about 50° C., when the relative activity was determined, using acetylputrescine as substrate, as shown in FIG. 4. The optimum temperatures for the other acetylpolyamine amidohydrolases were 30° to 40° C. This clearly distinguishes the present enzyme from the known enzymes.
Km values of the present enzyme and the other known enzymes for various types of acetylpolyamine at pH 7.0 were determined from the Line weaver-Burk plot [refer to J. Am. Chem. Soc., 56, 658 (1934)].

[5] = system: E1: Enzyme derived from Streptomyces avellaneus (acetylpolyamine amidohydrolase); conditions: cited from earlier work; for Relative activity, E1: activity against acetylputrescine defined as 100; for Relative activity, St. avellaneus enzyme: acetylputrescine = 100
[6] = reported reference data in Table 5

Compound | Substrate concentration at which substrate inhibition was observed [1] | Vmax, Mycoplana bullata enzyme [1] | Relative activity, Mycoplana bullata enzyme [1] | Relative activity, E3 [2] | Relative activity, E2 [3] | Km [3] | Optimum pH [4] | Relative activity, the present enzyme [4] | Optimum pH [1] | Km ([1]; pH 9.0, Lineweaver-Burk plot, read-out: Km, Mycoplana bullata enzyme) | Km ([4]; pH 7.0, Lineweaver-Burk plot) | Relative activity, E1 ([5]; pH 7.0) | Relative activity, St. avellaneus enzyme [5, 6] | Km [2] | Km ([5]; pH 7.0, read-out: Km, E1) | Km ([5]; reported reference data in Table 5, read-out: Km, St. avellaneus enzyme)
CC(=O)NCCCCCN [Acetylcadaverine] | ≥ 1 mM | 18.8 u/mg | 72% | 12.5% | 45% | 1600 µM | 9 | 71% |  |  |  |  |  |  |  | 
CC(=O)NCCCNCCCCNCCCN [Acetylspermine] | > 1.6 mM | 7.7 u/mg | 37% | 2.1% | 3% |  | 8 | 24% | 10 | 290 µM | 160 µM | 0.4% | 0.4% |  |  | 
CC(=O)NCCCNCCCCN [N^1 -Acetylspermidine] | ≥ 1 mM | 20.5 u/mg | 61% | 3.5% |  |  | 8 | 108% | 9 |  |  |  |  |  |  | 
CC(=O)NCCCCNCCCN [N^8 -Acetylspermidine] | ≥ 1 mM | 19.8 u/mg | 60% | 85.1% |  |  | 8 | 51% | 9 |  |  |  |  | 380 µM |  | 
Acetylspermidine |  |  |  |  | 30% | 500 µM |  |  | 9 |  |  | 9.1% | 9.1% |  | 1100 µM | 1100 µM
